Legend:
[1] = test system: Brain Synaptosome Uptake of NA; experiment: Inhibition of [3H]-NA uptake by brain synaptosomes; type: biochemical, rats; settings: 0.1 mmol/L; rat frontal cortex synaptosomes; inhibited ratio by Desipramine counts 100%
Excerpt: (§1) The trial of uptaking the mono-amines neurotransmitter by synaptosomes is now one of the common method to study the central nervous pharmacology. This method is not only used to study the action mechanism of the medicament, but also to look for new antidepressant drugs which act on this tache. […] The method is recounted as follows:
(§2) (1). Preparation of synaptosomes. According to the described method by literatures (a. Biochem Pharmacol 1973, 22: 311-322, b. Methods in Neurochemistry, Vol. 2, New York: Marcel Dakker, Inc, 1972, 1-52), rats were decapitated, the brains rapidly excised, and frontal cortex dissected out on ice-cold saline (4° C.). The 3 g tissue was homogenized in 30 ml of ice-cold 0.32M sucrose and then centrifuged (1500 g) for 10 min (4° C.). The pellet was discarded and the supernatant centrifuged (20000 g) for 30 min (4° C.). After refined, the pellet was resuspended in buffer and immediately used. Protein content was deter mined with kit of total protein.
(§3) (2). Uptake of 5-HT. According to the described method by literatures (Br J Pharmacol, 1997, 122: 302-306; b. 1992, 105: 147-151), in the tubes, 1.0 ml artificial cerebral fluid, 20 μl suspension of synaptosomes and 10 μl solution of compound were added. After mixing, the tubes were incubated 5 min in 37° C. Uptake was started by addition of 10 μl [^3H]-5-HT or [^3H]-NA (300 nM), after another mixing, the tubes were incubated again 5 min in 37° C. The reaction was stopped by cooling the tubes in ice, the samples were then filtered through glass fibre filters and washed twice with artificial cerebral fluid. After drying in 60-70° C., the filter membranes were put into scintillation tubes. Filter-bound radioactivity was counted by scintillation spectrometry. The difference in [^3H]-5-HT or [^3H]-NA at 37° C. and 0° C. was taken as a measure of active uptake.

mouse [2] = experiment: Tail suspension test of behavioural despair; type: in vivo; settings: control 89.7±38.27
Experimental: (§4) Using the tail suspension test of “behavioural despair” and the mouse forced swimming test, and choosing Desipra mine as control medicament, to study the primary antidepressant effect of IV-19 that has the strong inhibited effect for both uptake of 5-HT and NA. The results are as follows:
(1). In the tail suspension test, IV-19 can diminish obviously the immobile times of mouse due to despair. The effect induced by 50 mg/kg IV-19 (20.2±16.05 sec) is the same as 10 mg/kg Desipra mine (27.5±21.93 sec), but a significant difference occurs when comparing with control (89.7±38.27).

mouse [3] = experiment: Mouse forced swimming test; type: in vivo; settings: control 93.4±27.36
Experimental: as §4
(2). In the mouse forced swimming test, IV-19 also can diminish obviously the immobile times of mouse in water due to despair. As the results of tail suspension test, the effect induced by 50 mg/kg IV-19 (46.3±30.2 sec) is the same as 10 mg/kg Desipra mine (46±27.36 sec), but a significant difference occurs when comparing with control (93.4±27.36).

[4] = test system: Brain Synaptosome Uptake of 5-HT; experiment: Inhibition of [3H]-5-HT uptake by brain synaptosomes; type: biochemical, rats; settings: 0.1 mmol/L; rat frontal cortex synaptosomes; inhibited ratio by Fluoxetine counts 100%
Excerpt: as §1, §2, §3

[5] = test system: S. Typhimurium TA97, TA98, TA100 and TA102; experiment: Bacterial reverse-mutation assay (Ames TS); type: cell-based
Excerpt: 4. Bacterial reverse-mutation assay (Ames TS) of IV-19
Bacillus: S. Typhimurium TA97, TA98, TA100 and TA102
All tested doses didn't induce the evident increase of revertants, Ames TS of […] is negative.

mice = experiment: Acute toxicity; type: in vivo; settings: p.o. in mice, calculated with Bliss

| Compound | Inhibited ratio of uptake for NA(%) [1] [%] | Inhibited ratio of uptake for 5-HT(%) [4] [%] | further results |
| --- | --- | --- | --- |
| CNCCCN1c2ccccc2CCc2ccccc21 [Desipra mine, reference compound] | 100 |  | immobile times of mouse, tail suspension test (mouse [2]; 10 mg/kg): 27.5 ± 21.93 s; immobile times of mouse in water, forced swimming test (mouse [3]; 10 mg/kg): 46 ± 27.36 s |
| Cl.Cl.OC(c1ccccc1)C(c1ccccc1)N1CCN(Cc2ccccc2)CC1 (centres unmarked) [IV-8, N^1-benzyl-N^4-[(1,2-diphenyl)ethyl-2-ol] piperazine dihydrochloride] | 104 | <10 |  |
| Cl.Cl.OC(CN1CCN(Cc2ccc(F)cc2)CC1)c1ccc(Cl)cc1 (centres unmarked) [IV-11, N^1-(4-fluorobenzyl)-N^4-[2-(4-chlorophenyl)ethyl-2-ol] piperazine dihydrochloride] | 101 | 81 |  |
| COc1ccc2cc(C(O)C(C)N3CCN(c4cccc(Cl)c4)CC3)ccc2c1Cl.Cl.Cl (centres unmarked) [IV-17, N^1-(3-chlorophenyl)-N^4-[1-(5-chloro-6-methoxyl-naphthalen-2-yl)-propane-2-yl-1-ol] piperazine dihydrochloride] | 30 | 99 |  |
| COc1ccc2cc(C(O)C(C)N3CCN(CC(O)c4ccccc4)CC3)ccc2c1Cl.Cl.Cl (centres unmarked) [IV-18, N^1-(2-phenylethyl-2-ol)-N^4-[1-(5-chloro-6-methoxyl-naphthalen-2-yl)-propane-2-yl-1-ol] piperazine dihydrochloride] | 23 | 127 |  |
| COc1ccc2cc(C(O)C(C)N3CCN(Cc4ccc([N+](=O)[O-])cc4)CC3)ccc2c1Cl.Cl.Cl (centres unmarked) [IV-20, N^1-(4-nitrobenzyl)-N^4-[1-(5-chloro-6-methoxyl-naphthalen-2-yl)-propane-2-yl-1-ol] piperazine dihydrochloride] | 108 | 110 |  |
| COc1cc(CN2CCN(C(C)C(O)c3ccc4c(Cl)c(OC)ccc4c3)CC2)cc(OC)c1OC.Cl.Cl (centres unmarked) [IV-22, N^1-(3,4,5-trimethoxybenzyl)-N^4-[1-(5-chloro-6-methoxyl-naphthalen-2-yl)-propane-2-yl-1-ol] piperazine dihydrochloride] | 77 | 116 |  |
| N^1-(4-chlorobenzyl)-N^4-(phenylpropane-2-yl-3-ol) piperazine dihydrochloride [IV-2] | 62 | 82 |  |
| N^1-(4-fluorobenzyl)-N^4-(2-phenylethyl-2-ol) piperazine dihydrochloride [IV-6] | 107 | 79 |  |
| N^1-(4-nitrobenzyl)-N^4-(2-phenylethyl-2-ol) piperazine dihydrochloride [IV-26] | 80 | 63 |  |
| N^1-(R-1-phenylethyl)-N^4-[1-(5-chloro-6-methoxyl-naphthalen-2-yl)-propane-2-yl-1-ol] piperazine dihydrochloride [IV-35] | 58 | 107 |  |
| N^1-(S-1-phenylethyl)-N^4-[1-(5-chloro-6-methoxyl-naphthalen-2-yl)-propane-2-yl-1-ol] piperazine dihydrochloride [IV-34] | 10 | 108 |  |
| N^1-benzyl-N^4-[1-(5-chloro-6-methoxyl-naphthalen-2-yl)-propane-2-yl-1-ol] piperazine dihydrochloride [IV-19] | 140 | 114 | Ames TS result (increase of revertants) ([5]; TA97, TA98, TA100, TA102, without S9 and with S9, all tested doses): negative; inhibitory effect for the growth of bacteria ([5]; TA97, with S9, 5000 μg/utensil): inhibitory effect; inhibitory effect for the growth of bacteria ([5]; TA98, without S9, 5000 μg/utensil): inhibitory effect; LD50 (mice): about 1 g/kg; immobile times of mouse, tail suspension test (mouse [2]; 50 mg/kg): 20.2 ± 16.05 s; immobile times of mouse in water, forced swimming test (mouse [3]; 50 mg/kg): 46.3 ± 30.2 s |
| N^1-benzyl-N^4-[2-(4-chlorophenyl)ethyl-2-ol] piperazine dihydrochloride [IV-4] | 51 | 85 |  |

Reference: US7576086B2, “Aralkyl-alcohol peiperazine derivatives and their uses as antidepressant” (Shanghai Institute of Pharmaceutical Industry, priority 2002, dated 2009)
